Experiments:
[1] = tested on: human neural progenitor cell line (RenVM); assay: neuronal differentiation of Ren cells (β3-tubulin positive fraction); assay type: cell-based; conditions: 1 μM d-bdnf, four days; BDNF 50 ng/mL comparator
Experimental: Figure 3 Neurite outgrowth stimulated by BDNF and its mimetic peptide ligands. (A) Top, left: schematic timeline of the experiment. SH-SY5Y cells were differentiated for 5 days (d1–5) by addition of retinoic acid (RA, gray bar) in the cell medium. Then, cells were stimulated for 3 days (d6–8) with 150 ng/mL BDNF or different concentrations of its peptide-mimetics (black bar) or left untreated (white bar). On the right and bottom, representative images of the differentiated cells at the end of each treatment. Scale bar 50 μm. (B) Scatter dot plot of the total neurite length, normalized to the number of cell bodies present in each analyzed field. […] For each field, an average of 50–200 cells were counted. […] (C) Representative fluorescence images of DIV3 Ren cells stained with DAPI (blue) and β3-tubulin (green) after differentiation with the standard medium (CTRL), or with the standard medium supplemented with 50 ng/mL BDNF or with 1 μM d-bdnf. […] (D) Column plot of the mean ± SD fraction of β3-tubulin (green) positive on the total cells, counted in the DAPI channel of the analyzed fields (nfields) (CTRL: nfields = 10 and total ncells = 4756; BDNF: nfields = 11 and total ncells = 4330; d-bdnf: nfields = 10 and total ncells = 5619 cells; ****p < 0.0001, *p < 0.05 according to the one-way ANOVA with Dunnett’s multiple comparison test). […]

[2] = potentiometric titration, Zn^2+ complex stability constants; assay type: binding; conditions: 298 K, 0.1 M KNO3, metal/ligand 0.9:1 to 2.2:1
Experimental: Potentiometric measurements were carried out to give insight into the coordination environment of Zn^2+ bound to the d-bdnf peptide (Figure S5). […] The four protonation equilibria of the aspartic and glutamic residues partly overlap but, in agreement with the literature data, the aspartic β-carboxylic group is more acidic than glutamic γ-carboxylic one.[48] The potentiometric titrations were carried out exploring 0.9:1 and 2.2:1 metal to ligand molar ratio. […] The peptide forms two complex species, [ZnLH] and [ZnL]. The first one is the predominant at pH = 6, and the calculated stability constant value [logK(111) = logβ(111) – logK(011) = 5.71] indicates the involvement of three nitrogen atoms in the metal coordination environment. The [ZnL] species display a stability constant value, logβ = 7.15, higher than that of protonated species indicative of the involvement of a further nitrogen atom in the metal binding mode. In this complex species, Zn^2+ is bound to four nitrogen atoms with the involvement of two amino and two imidazole (2NH2,2NIm coordination mode). […]
Potentiometric measurements
Potentiometric titrations were carried out on a Titrando 905 automatic, using a combined glass-Ag/AgCl electrode (Metrohm, Switzerland). […] To avoid systematic errors and verify reproducibility, the EMF values of each experiment were recorded at different time intervals. The data were analyzed by […]

HSDPARRGELSVC-C-VSLEGRRAPDSH (disulfide) [d-bdnf]
neuronal cell fraction (β3-tubulin positive) [1]: significant increase of detected neurons with respect to untreated cells, in a similar way to BDNF
log (Zn2+ complex stability constant) ([2]; species ZnLH 110, [ZnL] (2 His, 2 NH2)): 7.15 (3)
log (Zn2+ complex stability constant) ([2]; species ZnLH 111 (2 His, NH2)): 13.30 (2)

Source: PMC9732821, “Neurotrophic Activity and Its Modulation by Zinc Ion of a Dimeric Peptide Mimicking the Brain-Derived Neurotrophic Factor N-Terminal Region” (ACS Chemical Neuroscience, 2022)
